# Source: PMC6688182 (Peptides, 2017)
# Values joined by “and” are separate entries in the source; they are usually repeats but may differ in a detail not shown here. Identical values can stand only once. “Also recorded” adds a separate entry of the source.
# What was measured:
# [1] = tested on: Ang-(1–7)-dependent vasorelaxation of the isolated renal artery; experiment: Effect of K+ channel blockers on Ang-; design: species or system male Wistar rat; settings: glibenclamide 10^−5 M; PE 3 × 10^−7 M; mean ± SEM, N = 8; * P < 0.05 vs. control
# [2] = tested on: anti-nociceptive actions of Ang-(1–7); settings: ref [13]; cited from earlier work
# [3] = tested on: Ang-(1–7)-dependent vasorelaxation of the isolated renal artery; experiment: Effect of NOS, soluble guanylate cyclase and cyclooxygenase inhibitors on Ang-; design: species or system male Wistar rat; settings: for Effect of signaling inhibitor on Ang-(1–7)-induced vasorelaxation (in words) / Maximal vasorelaxation response to Ang-(1–7) in presence of L-NAME: L-NAME 10^−4 M; for Effect of signaling inhibitor on Ang-(1–7)-induced vasorelaxation (in words): indomethacin 10^−6 M; for Maximal vasorelaxation response to Ang-(1–7) in presence of L-NAME: N = 6
# [4] = tested on: mesenteric vessels; settings: rat mesentery; ref [20]; cited from earlier work
# [5] = tested on: blood pressure; settings: ref [1],[16],[17]; cited from earlier work
# [6] = tested on: afferent arterioles; settings: ref [24]; cited from earlier work
# [7] = tested on: SHR and WKY rats; settings: SHR and WKY rats following AT1 receptor blockade; ref [36]; cited from earlier work
# [8] = tested on: bovine endothelial cells; settings: cited from earlier work; for Effect on NO stimulation by Ang-(1–7) or AVE0991: bovine endothelial cells, ref [14],[37]
# [9] = tested on: Ang-(1–7)-dependent vasorelaxation of the isolated renal artery; experiment: Effect of angiotensin receptor antagonists on Ang-; design: species or system male Wistar rat; settings: for Effect of receptor antagonist on Ang-(1–7)-induced vasorelaxation (in words): DALA, DPRO, Sarthran 10^−5 M, losartan, PD123319 10^−6 M, 20 min
# [10] = tested on: aortic segments; settings: ref [28]; cited from earlier work
# [11] = tested on: mesenteric artery; settings: ref [21]; cited from earlier work
# [12] = target: T1, AT2 receptor (Rattus norvegicus, UniProt P35351); experiment: Competition of 125I-Sarthran binding in AR42J pancreatic cell membranes; settings: 0.2 nM 125I-Sarthran, antagonists up to 10^−5 M, n = 3
# T1 sequence (P35351 1-363): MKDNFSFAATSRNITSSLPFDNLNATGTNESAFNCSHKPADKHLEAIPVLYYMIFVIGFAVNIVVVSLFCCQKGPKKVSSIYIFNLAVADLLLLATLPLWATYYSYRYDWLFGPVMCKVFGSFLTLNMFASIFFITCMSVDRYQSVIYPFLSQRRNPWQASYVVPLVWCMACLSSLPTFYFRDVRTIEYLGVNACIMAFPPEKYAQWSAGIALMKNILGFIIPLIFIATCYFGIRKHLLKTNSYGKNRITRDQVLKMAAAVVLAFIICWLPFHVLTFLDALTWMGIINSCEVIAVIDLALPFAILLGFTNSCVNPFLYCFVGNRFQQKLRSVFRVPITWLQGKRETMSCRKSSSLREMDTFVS
# [13] = tested on: older WKY rats; settings: 20 months, ref [5]; cited from earlier work
# [14] = tested on: Mas-related receptor MrgD; settings: aortic rings; ref [19]; cited from earlier work
# [15] = tested on: Ang-(1–7)-dependent vasorelaxation of the isolated renal artery; experiment: Effect of bradykinin B2 receptor antagonist on Ang-; design: species or system male Wistar rat
# [16] = tested on: blood flow in multiple vascular beds; settings: kidney, mesentery and skin; ref [27]; cited from earlier work
# [17] = tested on: AT2 and AT1 sites; settings: ref [4],[30],[31],[35]; cited from earlier work
molecule,measurement,setting,value
COc1ccc(Cl)cc1C(=O)NCCc1ccc(S(=O)(=O)NC(=O)NC2CCCCC2)cc1 [Glibenclamide],Maximal vasorelaxation response to Ang-(1–7) in presence of glibenclamide,[1],22.3 ± 2.3 ^* %
same,Effect on anti-nociceptive actions of Ang-(1–7),[2],abolished the anti-nociceptive actions of Ang-(1–7)
COc1ccc2c(c1)c(CC(=O)O)c(C)n2C(=O)c1ccc(Cl)cc1 [Indomethacin],Effect of signaling inhibitor on Ang-(1–7)-induced vasorelaxation (in words),[3]; ODQ 10^−5 M,failed to block the Ang-(1–7) response
same,Effect on Ang-(1–7)-dependent dilation of mesenteric vessels,[4],inhibition of the Ang-(1–7) vasorelaxant effects
same,Effect on blood pressure-lowering effects of Ang-(1–7),[5],attenuated the blood pressure-lowering effects of the peptide
CCc1nc2c(C)cc(C)nc2n1Cc1ccc(-c2ccccc2-c2nn[nH]n2)cc1 [L158809],Effect on Ang-(1–7)-induced vasodilation of renal afferent arterioles,[6],not reversed
"COC(=O)[C@@H](N)CCCNC(N)=N[N+](=O)[O-] [L-NAME, nitro-l-arginine methyl ester]",Maximal vasorelaxation response to Ang-(1–7) in presence of L-NAME,"[3]; Ang-(1–7) 10^−12 to 10^−6 M, PE 3 × 10^−7 M, mean ± SEM, * P < 0.05 vs. control",13.4 ± 2.0 ^* %
same,Maximal vasorelaxation response to Ang-(1–7) in presence of L-NAME,"[3]; Ang-(1–7) 10^−12 to 10^−6 M, PE 3 × 10^−7 M, mean ± SEM, * P < 0.05 vs. control, listed as LNAME",13 ± 2%
same,Effect of signaling inhibitor on Ang-(1–7)-induced vasorelaxation (in words),[3]; ODQ 10^−5 M,attenuated the Ang-(1–7) response
same,Effect on depressor effects of Ang-(1–7),[7],sensitive
same,Effect on NO stimulation by Ang-(1–7) or AVE0991,[8],blocked
same,Effect on Ang-(1–7)-dependent dilation of mesenteric vessels,[4],inhibition of the Ang-(1–7) vasorelaxant effects
CCCCc1nc(Cl)c(CO)n1Cc1ccc(-c2ccccc2-c2nn[nH]n2)cc1 [Losartan],Maximal vasorelaxation response to Ang-(1–7) in presence of antagonist,[9],22 ± 6%
same,Effect of receptor antagonist on Ang-(1–7)-induced vasorelaxation (in words),[9],significantly attenuated
same,Effect on Ang-(1–7)-dependent relaxation of aortic segments,[10],no inhibitory effect
same,Effect on vasorelaxation of the mesenteric artery by Ang-(1–7),[11],blocked
"O=c1onc2cnc3ccccc3n12 [ODQ, 1H-[1,2,4] oxadiazolo-quinoxalin]",Maximal vasorelaxation response to Ang-(1–7) in presence of ODQ,"[3]; ODQ 10^−5 M, Ang-(1–7) 10^−12 to 10^−6 M, PE 3 × 10^−7 M, mean ± SEM, N = 8, * P < 0.05 vs. control",10 ± 2% and 10.0 ± 2.1 ^* %
Cc1cc(Cn2cnc3c2C[C@@H](C(=O)O)N(C(=O)C(c2ccccc2)c2ccccc2)C3)ccc1N(C)C [PD123319],Effect of receptor antagonist on Ang-(1–7)-induced vasorelaxation (in words),[9],significantly attenuated
same,Competition of 125I-Sarthran binding (in words),[12],essentially abolished binding
same,Effect on Ang-(1–7)-dependent relaxation of aortic segments,[10],no inhibitory effect
same,Effect on vasorelaxation of the mesenteric artery by Ang-(1–7),[11],but not the AT2 antagonist PD123319
same,Effect on Ang-(1–7)-induced vasodilation of renal afferent arterioles,[6],not reversed
same,Effect on depressor effects of Ang-(1–7),[7],abolished
same,Effect on depressor actions of Ang-(1–7),[13],blocked the depressor actions of Ang-(1–7)
same,Effect on the effects of [Ala^1]-Ang-(1–7),[14],abolished the effects of [Ala^1]-Ang-(1–7)
same,Effect on NO stimulation by Ang-(1–7) or AVE0991,[8],blocked
CCOc1nc2cccc(C(=O)O)c2n1Cc1ccc(-c2ccccc2-c2nnn[nH]2)cc1 [candesartan],Effect on vasorelaxation of the mesenteric artery by Ang-(1–7),[11],blocked
same,Effect on Ang-(1–7)-dependent NO release,[8]; ref [14],attenuated Ang-(1–7)-dependent NO release
HOE140,Effect of B2 antagonist on Ang-(1–7)-induced vasorelaxation (in words),"[15]; HOE140 5 × 10^−8 M, alone or with L-NAME 10^−4 M",markedly inhibited the vasorelaxation to Ang-(1–7); also recorded: significantly attenuated
same,Maximal vasorelaxation response to Ang-(1–7) in presence of HOE140,"[15]; HOE140 5 × 10^−8 M, PE 3 × 10^−7 M, mean ± SEM, N = 9, * P < 0.05 vs. control 42.4 ± 5.8",14.0 ± 7.0 ^* %
same,Ang-(1–7)-induced relaxation (maximal response) in presence of HOE140,"[15]; HOE140 10^−6 M as printed in the abstract, PE 3 × 10^−7 M, mean ± SEM",14 ± 7%
same,Effect on depressor effects of Ang-(1–7),[7],sensitive
same,Effect on NO stimulation by Ang-(1–7) or AVE0991,[8],blocked
[D-Alanine^7]-Ang-(1–7) [D-Ala^7-Ang-(1–7)],Effect of receptor antagonist on Ang-(1–7)-induced vasorelaxation (in words),[9],significantly inhibited; also recorded: essentially abolished
same,Effect on Ang-(1–7)-dependent relaxation of aortic segments,[10],abolished
same,Effect on vasorelaxation of the mesenteric artery by Ang-(1–7),[11],blocked
same,Effect on Ang-(1–7)-induced vasodilation of renal afferent arterioles,[6],abolished
same,Effect on increase in blood flow by Ang-(1–7),[16],abolished
same,Effect on depressor actions of Ang-(1–7),[13],blocked the depressor actions of Ang-(1–7)
same,Effect on the effects of [Ala^1]-Ang-(1–7),[14],ineffective
same,Effect on NO stimulation by Ang-(1–7) or AVE0991,[8],blocked
same,Effect on Ang-(1–7)-dependent dilation of mesenteric vessels,[4],sensitivity to DALA blockade
same,Action at AT2 and AT1 sites,[17],lack of actions at AT2 and AT1 sites
[D-Proline^7]-Ang-(1–7) [D-Pro^7-Ang-(1–7)],Effect of receptor antagonist on Ang-(1–7)-induced vasorelaxation (in words),[9],significantly inhibited; also recorded: essentially abolished
same,Effect on the effects of [Ala^1]-Ang-(1–7),[14],abolished the effects of [Ala^1]-Ang-(1–7)
same,Action at AT2 and AT1 sites,[17],lack of actions at AT2 and AT1 sites
